Experimental findings from ChEMBL document CHEMBL4321846, “Discovery of a Potent and Selective Oral Inhibitor of ERK1/2 (AZD0364) That Is Efficacious in Both Monotherapy and Combination Therapy in Models of Nonsmall Cell Lung Cancer (NSCLC)” (J Med Chem, 2019) are described below.

Data set [1] addresses T1, Mitogen-activated protein kinase 1 (Homo sapiens, UniProt P28482). The data set can be described thus: Binding affinity to MEK-activated phosphorylated biotinylated ERK2 (unknown origin) by SPR analysis.
Data set [2] concerns the target CDK2/Cyclin O (Homo sapiens) (UniProt P24941+P22674). As to the kind of experiment: Inhibition of recombinant human full length N-terminal GST-tagged CDK2/Cyclin O expressed in baculovirus infected Sf9 cells at 1 uM relative to control.
Data set [3] addresses Serine/threonine-protein kinase B-raf (Homo sapiens) (UniProt P15056). As to the kind of experiment: Inhibition of recombinant full length GST-tagged human BRAF1 expressed in baculovirus expression system at 1 uM relative to control.
Data set [4] in a line: Half life in po dosed dog. The data set is classed as ADME, organism-based, Canis lupus familiaris. To be noted: in vivo.
Data set [5] has as its system Calu-6. As to the kind of experiment: Antitumor activity against human Calu6 cells expressing KRAS Q61K mutant xenografted in athymic Nude-Foxn1nu mouse assessed as tumor regression at 50 mg/kg, po qd adminstered for 21 days and measured twice per week by caliper method relative to control. The data set is classed as functional.
Data set [6] concerns the target CDK2/Cyclin A1 (Homo sapiens) (UniProt P24941+P78396). As to the kind of experiment: Binding affinity to recombinant human full length N-terminal GST-tagged CDK2/Cyclin A1 expressed in baculovirus infected Sf9 cells at 1 uM relative to control.
The next data set has as its system A549. As to the kind of experiment: Antitumor activity against human A549 cells harboring KRAS […] mutant xenografted in athymic Nude-Foxn1nu mouse assessed as tumor regression at 25 mg/kg, po bid adminstered for 21 days and measured twice per week in presence of selumetinib by caliper method relative to control. The data set is classed as functional.
Data set [7] can be described thus: Oral bioavailability in dog. The following applies: in vivo. The data set is classed as ADME, organism-based, Canis lupus familiaris.
The test system of data set [8] is Calu-6. The data set can be described thus: Antiproliferative activity against human Calu6 cells expressing KRAS Q61K mutant assessed as growth inhibition. The data set is classed as functional.
For data set [9], the target named is Cyclin-dependent kinase 2/cyclin E1 (Homo sapiens, UniProt P24941). As to the kind of experiment: Inhibition of human full length C-terminal His6-tagged Cdk2/human full length N-terminal GST-tagged Cyclin E expressed in baculovirus infected Sf21 insect cells after 1 hr by electromobility shift assay.
Data set [10] addresses T1, Mitogen-activated protein kinase 1.
The target of data set [11] is Cyclin-dependent kinase 5/CDK5 activator 1 (Homo sapiens) (UniProt Q00535+Q15078). The data set can be described thus: Inhibition of recombinant full length human GST/His-tagged CDK5/p25 expressed in baculovirus expression system at 1 uM relative to control.
Sequence of Cyclin-dependent kinase 5/CDK5 activator 1 (Homo sapiens) (Q00535 whole entry): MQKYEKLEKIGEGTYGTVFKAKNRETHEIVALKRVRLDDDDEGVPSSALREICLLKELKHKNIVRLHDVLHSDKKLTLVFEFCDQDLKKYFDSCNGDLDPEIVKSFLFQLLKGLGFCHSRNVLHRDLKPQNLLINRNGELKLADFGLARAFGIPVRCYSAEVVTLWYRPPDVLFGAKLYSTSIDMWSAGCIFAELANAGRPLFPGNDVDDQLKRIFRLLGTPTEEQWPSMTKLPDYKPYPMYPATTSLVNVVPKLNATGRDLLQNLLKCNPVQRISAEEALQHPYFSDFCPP
Sequence of Cyclin-dependent kinase 5/CDK5 activator 1 (Homo sapiens) (Q15078 99-307 partner limits assumed): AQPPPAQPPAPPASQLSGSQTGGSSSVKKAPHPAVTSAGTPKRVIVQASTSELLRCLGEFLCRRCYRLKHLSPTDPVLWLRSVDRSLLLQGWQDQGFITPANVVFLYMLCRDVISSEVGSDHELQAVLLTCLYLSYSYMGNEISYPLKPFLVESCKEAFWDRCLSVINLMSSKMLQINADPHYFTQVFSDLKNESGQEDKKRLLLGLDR
A short description of data set [12]: Fraction unbound in mouse plasma. The data set is classed as ADME, cell-free.
Data set [13] addresses Voltage-gated inwardly rectifying potassium channel KCNH2 (Homo sapiens, UniProt Q12809).
The target in data set [14] is T1, Mitogen-activated protein kinase 1. This is another data set of the same source.

T1 sequence (P28482 whole entry): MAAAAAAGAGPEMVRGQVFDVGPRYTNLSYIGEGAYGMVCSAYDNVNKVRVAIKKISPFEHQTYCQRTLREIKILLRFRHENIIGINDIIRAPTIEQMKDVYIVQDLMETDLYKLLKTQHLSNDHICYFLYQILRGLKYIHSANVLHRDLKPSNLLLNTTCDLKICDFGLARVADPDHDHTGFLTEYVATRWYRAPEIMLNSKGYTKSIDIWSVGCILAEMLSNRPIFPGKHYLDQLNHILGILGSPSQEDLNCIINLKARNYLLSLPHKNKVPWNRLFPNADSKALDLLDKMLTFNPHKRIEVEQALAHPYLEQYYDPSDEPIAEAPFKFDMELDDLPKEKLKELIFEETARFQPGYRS
Sequence of Serine/threonine-protein kinase B-raf (Homo sapiens) (P15056 whole entry): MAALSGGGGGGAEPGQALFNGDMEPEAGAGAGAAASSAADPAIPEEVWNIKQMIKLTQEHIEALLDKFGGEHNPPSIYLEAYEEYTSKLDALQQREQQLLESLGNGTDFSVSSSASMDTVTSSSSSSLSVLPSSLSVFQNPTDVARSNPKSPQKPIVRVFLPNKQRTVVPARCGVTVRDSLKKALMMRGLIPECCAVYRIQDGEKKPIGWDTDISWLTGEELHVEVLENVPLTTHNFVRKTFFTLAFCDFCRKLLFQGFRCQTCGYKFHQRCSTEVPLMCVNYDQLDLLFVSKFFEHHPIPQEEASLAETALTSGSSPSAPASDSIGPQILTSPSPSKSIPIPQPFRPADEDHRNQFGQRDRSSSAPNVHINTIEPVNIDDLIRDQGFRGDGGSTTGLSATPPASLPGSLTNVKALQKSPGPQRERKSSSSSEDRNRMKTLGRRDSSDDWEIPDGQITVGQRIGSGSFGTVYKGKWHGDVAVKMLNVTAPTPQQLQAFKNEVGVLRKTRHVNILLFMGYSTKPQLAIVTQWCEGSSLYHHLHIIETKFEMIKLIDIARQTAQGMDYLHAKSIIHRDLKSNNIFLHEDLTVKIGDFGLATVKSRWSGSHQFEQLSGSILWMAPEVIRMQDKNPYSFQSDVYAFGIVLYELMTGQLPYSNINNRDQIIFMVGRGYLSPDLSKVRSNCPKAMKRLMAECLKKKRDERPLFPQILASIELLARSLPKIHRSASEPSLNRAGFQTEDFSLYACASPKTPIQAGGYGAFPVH
Sequence of Voltage-gated inwardly rectifying potassium channel KCNH2 (Q12809 whole entry): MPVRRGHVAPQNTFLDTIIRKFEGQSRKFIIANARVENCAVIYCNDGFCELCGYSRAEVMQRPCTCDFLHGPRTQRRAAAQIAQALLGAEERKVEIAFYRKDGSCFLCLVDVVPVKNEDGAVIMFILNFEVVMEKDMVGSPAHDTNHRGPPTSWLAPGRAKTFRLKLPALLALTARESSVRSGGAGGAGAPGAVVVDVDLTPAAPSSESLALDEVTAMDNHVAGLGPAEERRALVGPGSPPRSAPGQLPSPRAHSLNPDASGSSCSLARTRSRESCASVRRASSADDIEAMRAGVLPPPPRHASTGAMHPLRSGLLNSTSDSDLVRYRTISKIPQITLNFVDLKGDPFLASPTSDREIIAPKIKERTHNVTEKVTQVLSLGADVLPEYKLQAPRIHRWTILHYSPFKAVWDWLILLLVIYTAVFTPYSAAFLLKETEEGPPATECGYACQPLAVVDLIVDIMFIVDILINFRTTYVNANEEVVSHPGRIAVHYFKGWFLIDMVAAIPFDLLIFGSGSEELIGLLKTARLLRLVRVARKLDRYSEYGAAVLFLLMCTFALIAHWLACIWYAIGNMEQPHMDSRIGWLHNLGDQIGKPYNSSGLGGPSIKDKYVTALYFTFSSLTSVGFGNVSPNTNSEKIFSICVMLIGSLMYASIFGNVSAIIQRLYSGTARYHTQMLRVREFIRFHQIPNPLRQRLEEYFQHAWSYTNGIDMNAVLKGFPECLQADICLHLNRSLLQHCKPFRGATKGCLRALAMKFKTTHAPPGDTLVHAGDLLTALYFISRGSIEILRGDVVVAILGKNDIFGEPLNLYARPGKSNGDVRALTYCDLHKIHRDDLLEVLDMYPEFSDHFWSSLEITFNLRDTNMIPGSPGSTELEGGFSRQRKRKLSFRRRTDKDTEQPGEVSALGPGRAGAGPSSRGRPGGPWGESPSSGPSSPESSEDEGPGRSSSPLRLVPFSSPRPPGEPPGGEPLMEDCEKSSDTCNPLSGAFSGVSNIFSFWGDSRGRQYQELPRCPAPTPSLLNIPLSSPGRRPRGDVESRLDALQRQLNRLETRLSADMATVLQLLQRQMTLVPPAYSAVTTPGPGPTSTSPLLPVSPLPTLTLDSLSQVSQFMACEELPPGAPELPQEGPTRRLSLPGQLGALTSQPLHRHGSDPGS

Compound `COC[C@H]1Cn2cc(-c3nc(Nc4ccnn4C)ncc3C)nc2C(=O)N1Cc1ccc(F)c(F)c1` [TIZATERKIB] had a dissociation constant (Kd) in data set [1] of 0.0501 nM. Moreover, the figures for the inhibition in [2], in data set [3] and in data set [11] were 95%, 5.8% and 81%, respectively. This compound also gave a half-life in data set [4] of 5 h. Also, the results for the Activity (with Calu-6 [5]; in data set [6]; in the data set on A549) were 49%, 91% and 28%, respectively. Further, in data set [7], the bioavailability amounted to 100%. In the data set on Calu-6 [8], the GI50 turned out to be 200 nM. For the same compound, the IC50 in data set [9] is 1000 nM; in data set [13], 11000 nM. For the same compound, in [10], the Kdiss was determined as 4.5 ×10⁻⁵ /s. Further, the fraction unbound in data set [12] is 0.12. Moreover, in [14], the T1/2 was 4.62 h.
